Converted amounts (≈) assume the structure as drawn.
How the values were obtained:
[1] = molecular target: T1, Prostaglandin E2 receptor EP4 subtype (Homo sapiens, UniProt P35408); assay: Binding affinity at human prostaglandin EP4 receptor
[2] = molecular target: T2, Prostaglandin E2 receptor EP2 subtype (Homo sapiens, UniProt P43116); assay: Binding affinity at human prostaglandin EP2 receptor
[3] = molecular target: T1, Prostaglandin E2 receptor EP4 subtype; assay: Agonist activity at human prostaglandin EP4 receptor; assay type: functional
[4] = molecular target: T2, Prostaglandin E2 receptor EP2 subtype; assay: Agonist activity at human prostaglandin EP2 receptor; assay type: functional
Homo sapiens = species: Homo sapiens; assay: Selectivity for human EP4 over human EP2 receptor
[5] = Fraction unbound ligand in rat; assay type: ADME
[6] = Metabolic stability in human liver microsomes after 1 hr; assay type: ADME, Microsome; conditions: read-out: Stability
[7] = Solubility in saline; assay type: physicochemical
[8] = Oral bioavailability in rat; assay type: ADME, organism-based; conditions: in vivo
[9] = Apparent permeability of the compound; assay type: ADME; conditions: not told
[10] = Solubility in HBSS; assay type: physicochemical
[11] = Half life in rat; assay type: ADME, organism-based; conditions: in vivo
[12] = Metabolic stability in rat liver microsomes after 1 hr; assay type: ADME, Microsome; conditions: read-out: Stability
Mus musculus = assay: Induction of ovulation in sc dosed CD1 mouse; assay type: functional, organism-based

T2 sequence (P43116 whole entry): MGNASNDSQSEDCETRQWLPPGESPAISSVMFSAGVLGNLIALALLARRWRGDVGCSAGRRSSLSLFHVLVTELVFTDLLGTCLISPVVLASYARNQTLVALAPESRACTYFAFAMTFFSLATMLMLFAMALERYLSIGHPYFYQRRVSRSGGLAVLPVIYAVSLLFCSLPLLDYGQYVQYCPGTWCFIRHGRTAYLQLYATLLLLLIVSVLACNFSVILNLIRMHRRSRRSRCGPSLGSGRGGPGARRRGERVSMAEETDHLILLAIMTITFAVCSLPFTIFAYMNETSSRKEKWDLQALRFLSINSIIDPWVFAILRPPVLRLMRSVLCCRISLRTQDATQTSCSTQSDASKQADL
T1 sequence (P35408 whole entry): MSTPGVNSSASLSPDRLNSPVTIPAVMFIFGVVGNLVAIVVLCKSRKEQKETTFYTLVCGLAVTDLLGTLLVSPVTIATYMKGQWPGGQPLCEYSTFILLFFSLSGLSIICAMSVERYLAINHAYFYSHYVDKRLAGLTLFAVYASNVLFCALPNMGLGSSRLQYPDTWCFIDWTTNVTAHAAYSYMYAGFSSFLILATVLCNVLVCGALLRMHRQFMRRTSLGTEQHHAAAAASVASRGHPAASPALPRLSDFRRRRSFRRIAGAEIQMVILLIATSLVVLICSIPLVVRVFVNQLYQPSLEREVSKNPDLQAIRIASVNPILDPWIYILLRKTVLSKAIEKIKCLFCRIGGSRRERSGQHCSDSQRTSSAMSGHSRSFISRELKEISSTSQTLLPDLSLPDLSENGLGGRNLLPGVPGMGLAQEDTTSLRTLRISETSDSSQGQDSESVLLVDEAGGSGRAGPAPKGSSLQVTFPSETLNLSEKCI

SMILES | Ki [1] | Ki [2] | other results
O=C(O)c1ccc(CCN2C(=O)CCN2CC[C@@H](O)Cc2ccccc2)cc1 | 134 nM | 9200 nM | 
CCCC1([C@H](O)C/C=C/[C@H]2[C@H](O)CC(=O)[C@@H]2CCCCCCC(=O)OC)CCC1 [BUTAPROST] | > 10000 nM | 110 nM | 
O=C(O)c1ccc(CCN2C(=O)CCN2CC[C@@H](O)Cc2cccc(I)c2)cc1 | 26 nM | 2030 nM | 
O=C(O)c1ccc(CCN2C(=O)CCN2CCC(O)Cc2cccc(Cl)c2)cc1 (stereo unspecified) |  |  | EC50 [3]: 0.2 nM
O=C(O)c1ccc(CCN2C(=O)CCN2CC[C@@H](O)Cc2cccc(Br)c2)cc1 | 13 nM | 3070 nM | EC50 [3]: 0.1 nM; EC50 [4]: > 10000 nM
CCCC1(C(O)CCCN2CCC(=O)N2CCc2ccc(C(=O)O)cc2)CCC1 (stereo unspecified) | > 50000 nM | 750 nM | EC50 [4]: 393 nM
O=C(O)c1ccc(CCN2C(=O)CCN2CCC(O)Cc2ccccc2)cc1 (stereo unspecified) |  |  | Selectivity ratio (Homo sapiens): 100
CCCCCC(O)CCN1CCC(=O)N1CCc1ccc(C(=O)O)cc1 (stereo unspecified) |  |  | Selectivity ratio (Homo sapiens): 10
O=C(O)c1ccc(CCN2C(=O)CCN2CCC(O)Cc2cccc(Br)c2)cc1 (stereo unspecified) | 13 nM | 5450 nM | fraction unbound [5]: 0.61; remaining at 1 h [6]: 0%; EC50 [3]: 0.2 nM; solubility [7]: 840 µg/mL (≈ 1820 µM); bioavailability [8]: 6.7%; Papp [9]: 10 ×10⁻⁶ cm/s; solubility [10]: 890 µg/mL (≈ 1930 µM); half-life [11]: 255 min; remaining at 1 h [12]: 7%; Activity (Mus musculus): Dose-dependent effect
CC(CCN1CCC(=O)N1CCc1ccc(C(=O)O)cc1)Cc1cccc(CCc2ccccc2)c1 (stereo unspecified) | 44 nM | 560 nM | 
O=C(O)c1ccc(CCN2C(=O)CCN2CCC(O)Cc2cccc(I)c2)cc1 (stereo unspecified) | 27 nM | 2360 nM | 
O=C(O)c1ccc(CCN2C(=O)CCN2CCC(O)Cc2cccc(C(F)(F)F)c2)cc1 (stereo unspecified) | 57 nM | 6000 nM | 
O=C(O)c1ccc(CCN2C(=O)CCN2CCC(O)Cc2cccc(CCC3CC3)c2)cc1 (stereo unspecified) | 330 nM | 8340 nM | 

Source: ChEMBL document CHEMBL1140555, “Synthesis and evaluation of novel pyrazolidinone analogs of PGE2 as EP2 and EP4 receptors agonists” (Bioorg Med Chem Lett, 2007)
